A short description of this data set: physchem. The conditions noted are these: -6° C. Here is the method: Methomyl and oxamyl were added to various methanol:water solvent systems ranging from 100 wt. % CH3 OH to 30 wt. % CH3 OH:70 wt. % H2 O. […] The samples were equilibrated at -6° C. in a constant temperature freezer after which they were seeded with methomyl and oxamyl crystals to ensure crystallization of both materials. After crystal-liquid equilibrium was assured, liquid was removed at -6° C. and assayed for methomyl and oxamyl. Solids were also removed at -6° C., washed with hexane and dried. The solids were then dissolved in methanol to yield a 10 wt. % solution. This solution was evaluated by thin layer chromatography (TLC) to ensure the solids consisted of both methomyl and oxamyl.
Solubility of Methomyl and Oxamyl 1:2.5 wt. ratio in CH3 OH:H2 O at -6° C.
Example 3 was repeated by dissolving methomyl and oxamyl in a 1:2.5 weight ratio in the same solvent systems under the same conditions.

Values after ≈ are worked out from the molar mass of the structure shown.

Compound `CNC(=O)ON=C(C)SC` [Methomyl] returned a solubility (30/70 ch3oh/h2o, both actives in solvent: Methomyl, with oxamyl, 1:2.5 wt., 30/70 CH3OH/H2O) of 156 mg/mL (≈ 962 mM); a solubility (40/60 ch3oh/h2o, Methomyl alone in solvent, alone) of 62 mg/mL (≈ 382 mM); a solubility (40/60 ch3oh/h2o, both actives in solvent: Methomyl, with oxamyl, 1:2.5 wt., 40/60 CH3OH/H2O) of 288 mg/mL (≈ 1780 mM); a solubility (50/50 ch3oh/h2o, Methomyl alone in solvent, alone) of 105 mg/mL (≈ 647 mM); a solubility (50/50 ch3oh/h2o, both actives in solvent: Methomyl, with oxamyl, 1:2.5 wt., 50/50 CH3OH/H2O) of 411 mg/mL (≈ 2530 mM); a solubility (60/40 ch3oh/h2o, Methomyl alone in solvent, alone) of 155 mg/mL (≈ 956 mM). The solubility is, setting by setting: (60/40 ch3oh/h2o, both actives in solvent: Methomyl, with oxamyl, 1:2.5 wt., 60/40 CH3OH/H2O) 440 mg/mL (≈ 2710 mM); (70/30 ch3oh/h2o, Methomyl alone in solvent, alone) 206 mg/mL (≈ 1270 mM); (70/30 ch3oh/h2o, both actives in solvent: Methomyl, with oxamyl, 1:2.5 wt., 70/30 CH3OH/H2O) 220 mg/mL (≈ 1360 mM); (80/20 ch3oh/h2o, Methomyl alone in solvent, alone) 263 mg/mL (≈ 1620 mM); (80/20 ch3oh/h2o, both actives in solvent: Methomyl, with oxamyl, 1:2.5 wt., 80/20 CH3OH/H2O) 573 mg/mL (≈ 3530 mM); (90/10 ch3oh/h2o, Methomyl alone in solvent, alone) 299 mg/mL (≈ 1840 mM). Further, the solubility (90/10 ch3oh/h2o, both actives in solvent: Methomyl, with oxamyl, 1:2.5 wt., 90/10 CH3OH/H2O) came to 699 mg/mL (≈ 4310 mM). In addition, the “Solubility, Methomyl alone in solvent” value (alone, 100/0 CH3OH/H2O) is on record as 30.7 gms/100 gms. Further, the “Solubility, both actives in solvent: Methomyl” value (with oxamyl, 1:2.5 wt., 100/0 CH3OH/H2O) was 71.1 gms/100 gms.

The record behind these values is patent US4032654A, “Water-soluble, liquid concentrates of S-methyl-[(methyl-carbamoyl)oxy]-thioacetimidate and methyl N', N'-dimethyl-N-[(methyl-carbamoyl)oxy]-1-thiooxamimidate” (priority 1975, dated 1977).
